Source: publication PMC5438822, “Pharmacokinetics and safety of carfilzomib in patients with relapsed multiple myeloma and end-stage renal disease (ESRD): an open-label, single-arm, phase I study” (Cancer Chemotherapy and Pharmacology, 2017)
Like-named read-outs stand apart in the source and are kept apart here.

Tests used:
[1] = tested on: relapsed multiple myeloma; settings: carfilzomib 56 mg/m^2 infused for 30 min with or without dexamethasone, cited from earlier work
Procedure: The 50% ORR in the overall population was similar to those previously reported in trials of carfilzomib 56 mg/m^2 infused for 30 min with or without dexamethasone for relapsed multiple myeloma (50% in a phase I trial and 55% in a phase II trial). Together, the results of this study support current recommendations for carfilzomib that no starting dose adjustment is warranted for patients with baseline renal impairment including those with ESRD [8, 20].

[2] = tested on: patients with relapsed multiple myeloma; test: Safety: adverse events (NCI CTCAE v4.03), discontinuations, deaths; assay type: in vivo, human; settings: for treatment discontinuation due to disease progression: as of data cutoff
Procedure: (§1) Patients received IV carfilzomib (as a 30-min infusion) in 28-day cycles (Fig. 1). All received carfilzomib 20 mg/m^2 on days 1 and 2 of cycle 1 and escalated to 27 mg/m^2 on day 8, 9, 15, and 16 of cycle 1. If tolerated, carfilzomib dose was increased to 56 mg/m^2 starting on day 1 of cycle 2 and continued on the same schedule (day 1, 2, 8, 9, 15, and 16 of each cycle). Oral or IV dexamethasone 8 mg/day was given on the same days as carfilzomib during cycles 1 and 2 but was optional in cycles 3 and beyond. IV hydration was given immediately prior to and following carfilzomib dosing during cycle 1 and at the investigator’s discretion in cycle 2 and higher; hydration consisted of 250 to 500 mL IV normal saline or other appropriate IV fluid.
(§2) Blood samples were collected for PK assessments for carfilzomib and its major metabolites (metabolites PR-389/M14, PR-413/M15, and PR-519/M16) (Fig. 1). Samples were collected at the following timepoints on cycle 1 day 16 (27 mg/m^2 dose) and cycle 2 day 1 (56 mg/m^2 dose) or on subsequent infusion days when the intended dose levels were administered: before infusion; 15 min after start of infusion; within 2 min before the end of infusion; and at 5, 15, and 30 min (±2 min for all timepoints ≤30 min), and 1, 2, and 4 h (±5 min for all timepoints >30 min) after the end of the infusion. Safety was assessed throughout the study and included the monitoring of AEs, clinical laboratory evaluations, electrocardiograms, and vital signs. Each evaluable patient’s response to treatment or progression over the course of the study was evaluated by the investigator according to the International Myeloma Working Group, International Uniform Response Criteria for Multiple Myeloma and European Group for Blood and Marrow Transplantation at day 1 of each cycle.
(§3) Safety was assessed for patients who received ≥1 dose of carfilzomib. AEs were graded using the National Cancer Institute Common Terminology Criteria for Adverse Events version 4.03 and mapped to preferred term and system organ class using the Medical Dictionary for Regulatory Activities (MedDRA). ORR defined as the proportion of patients for whom the best overall response was stringent complete response, complete response, very good PR, or PR, along with the associated 95% exact binomial CI (Clopper–Pearson method) was determined. CBR, defined as the proportion of patients with the best overall response of MR or better, was likewise determined along with the 95% exact binomial CI.

[3] = tested on: patients with relapsed multiple myeloma; test: Best overall response as determined by investigator (IMWG / EBMT criteria), DOR and PFS; assay type: in vivo, human; settings: for Best overall response: Minimal response / Best overall response: Complete response / Best overall response: Not evaluable / Best overall response: Partial response / Best overall response: Progressive disease / Best overall response: Stable disease / Best overall response: Stringent complete response / Best overall response: Very good partial response / Clinical benefit rate (95% CI), minimal response or better / Overall response rate (95% CI), partial response or better: response-evaluable, carfilzomib 20/27/56 mg/m^2 IV; for Best overall response: Minimal response: EBMT criteria
Procedure: (§4) This was a phase I, multicenter (13 sites in US, Canada, and Australia), open-label, nonrandomized, comparative PK study of carfilzomib in patients with multiple myeloma and normal renal function or ESRD on hemodialysis (NCT01949532). The primary objective was to assess the influence of ESRD on AUC, from time 0 to the last concentration measured (AUC0−last) and from time 0 extrapolated to infinity (AUC0−inf) of carfilzomib 56 mg/m^2 at cycle 2 day 1 in patients with relapsed multiple myeloma. Secondary objectives were to compare between patient cohorts additional PK parameters of carfilzomib at cycle 2 day 1, including C max, time to maximum concentration (t max), clearance, terminal half-life (t 1/2), volume of distribution at steady state, and mean residence time; compare between patient cohorts PK parameters of carfilzomib 27 mg/m^2 at cycle 1 day 16; evaluate PK parameters for carfilzomib’s major metabolites (PR-389/M14, PR-413/M15, and PR-519/M16) to help characterize metabolism and elimination profile of carfilzomib; and evaluate the safety and tolerability of carfilzomib. Exploratory objectives included evaluation of ORR (defined as PR or better) and clinical benefit rate [CBR; defined as ORR + minimal response (MR)], and estimation of duration of response (DOR) and PFS.
as §1, §2, §3

[4] = cited from earlier work
Excerpt: Carfilzomib, an epoxyketone proteasome inhibitor, is approved in the United States (US), Canada, Australia, European Union (EU), and other jurisdictions for the treatment of relapsed or refractory multiple myeloma. […] Following intravenous (IV) administration, carfilzomib is rapidly and extensively metabolized in patients with multiple myeloma or solid tumors. Similar to the metabolic profile in rats and monkeys, ...

[5] = Plasma pharmacokinetics of carfilzomib and its major metabolites after 30-min IV infusion, normal renal function vs ESRD; assay type: in vivo, human; settings: for AUC0−inf Geo mean ratio (90% CI), ESRD vs normal renal function / AUC0−last Geo mean ratio (90% CI), ESRD vs normal renal function: ANOVA of ln-transformed data, ESRD test, normal reference
Procedure: as §4, §1, §2
Descriptive statistics were provided for selected demographics, safety, and PK data, with all statistical summaries and analyses performed in SAS^Ⓡ version 9.1 or higher (SAS Institute Inc., Cary, NC). The primary PK analyses and other PK parameters were performed using the PK-evaluable population. Plasma PK parameters of carfilzomib and metabolites were computed in Phoenix WinNonlin^Ⓡ Enterprise version 5.2 or higher. To assess the effect of ESRD relative to normal renal function on PK parameters (AUC0−last and AUC0−inf), an analysis of variance (ANOVA) of the ln-transformed plasma PK parameters was performed, with renal impairment as a fixed effect. […]

[6] = total efficacy-evaluable population

CC(C)C[C@H](NC(=O)[C@H](CCc1ccccc1)NC(=O)CN1CCOCC1)C(=O)N[C@@H](Cc1ccccc1)C(=O)N[C@@H](CC(C)C)C(=O)[C@@]1(C)CO1 [carfilzomib]
ORR ([1]; phase I trial): 50%
ORR ([1]; phase II trial): 55%
treatment discontinuation due to disease progression ([2]; ESRD): 36%
patients with treatment-related AEs that led to study discontinuation ([2]; in vivo): Four
treatment discontinuation due to disease progression ([2]; normal renal function): 20%
patients who died during the study ([2]; total, none considered related to carfilzomib treatment): Five
patients with a PFS of ≥6 months ([3]; ESRD): 4 of 10
Best overall response: Minimal response ([3]; ESRD, n = 10): 0 (0.0) n (%)
Best overall response: Complete response ([3]; ESRD, n = 10): 0 (0.0) n (%)
Best overall response: Not evaluable ([3]; ESRD, n = 10): 0 (0.0) n (%)
Best overall response: Partial response ([3]; ESRD, n = 10): 5 (50.0) n (%)
Best overall response: Progressive disease ([3]; ESRD, n = 10): 2 (20.0) n (%)
Best overall response: Stable disease ([3]; ESRD, n = 10): 2 (20.0) n (%)
Best overall response: Stringent complete response ([3]; ESRD, n = 10): 0 (0.0) n (%)
Best overall response: Very good partial response ([3]; ESRD, n = 10): 1 (10.0) n (%)
Clinical benefit rate (95% CI), minimal response or better ([3]; ESRD, n = 10): 60.0 (26.2–87.8) %
Overall response rate (95% CI), partial response or better ([3]; ESRD, n = 10): 60.0 (26.2–87.8) %
patients with a PFS of ≥6 months ([3]; normal renal function): 6 of 14
Best overall response: Minimal response ([3]; normal renal function, n = 14): 1 (7.1) n (%)
Best overall response: Complete response ([3]; normal renal function, n = 14): 0 (0.0) n (%)
Best overall response: Partial response ([3]; normal renal function, n = 14): 3 (21.4) n (%)
Best overall response: Progressive disease ([3]; normal renal function, n = 14): 2 (14.3) n (%)
Best overall response: Stable disease ([3]; normal renal function, n = 14): 3 (21.4) n (%)
Best overall response: Stringent complete response ([3]; normal renal function, n = 14): 0 (0.0) n (%)
Best overall response: Very good partial response ([3]; normal renal function, n = 14): 3 (21.4) n (%)
Clinical benefit rate (95% CI), minimal response or better ([3]; normal renal function, n = 14): 50.0 (23.0–77.0) %
Overall response rate (95% CI), partial response or better ([3]; normal renal function, n = 14): 42.9 (17.7–71.1) %
patients with a PFS >12 months [3, 6]: 4 patients
patients with a PFS of ≥6 months [3, 6]: Ten
Best overall response: Minimal response ([3]; total, n = 24): 1 (4.2) n (%)
Best overall response: Complete response ([3]; total, n = 24): 0 (0.0) n (%)
Best overall response: Not evaluable ([3]; total, n = 24): 2 (8.3) n (%)
Best overall response: Partial response ([3]; total, n = 24): 8 (33.3) n (%)
Best overall response: Progressive disease ([3]; total, n = 24): 4 (16.7) n (%)
Best overall response: Stable disease ([3]; total, n = 24): 5 (20.8) n (%)
Best overall response: Stringent complete response ([3]; total, n = 24): 0 (0.0) n (%)
Best overall response: Very good partial response ([3]; total, n = 24): 4 (16.7) n (%)
Clinical benefit rate (95% CI), minimal response or better ([3]; total, n = 24): 54.2 (32.8–74.4) %
Overall response rate (95% CI), partial response or better ([3]; total, n = 24): 50.0 (29.1–70.9) %
half-life ([4]; IV administration at doses from 15 to 56 mg/m^2, patients): ≤ 60 min
dose excreted via urinary metabolites ([4]; within 24 h): approximately 25%
urinary and fecal excretion of the parent compound ([4]; within 24 h): 0.3 % of the total dose
AUC0−inf Geo mean ratio (90% CI), ESRD vs normal renal function ([5]; 27 mg/m^2): 138.09 (102.77–185.54) %
AUC0−last Geo mean ratio (90% CI), ESRD vs normal renal function ([5]; 27 mg/m^2): 139.72 (112.41–173.66) %
AUC0−inf Geo mean ratio (90% CI), ESRD vs normal renal function ([5]; 56 mg/m^2, cycle 2 day 1): 133.62 (70.93–251.73) %
AUC0−last Geo mean ratio (90% CI), ESRD vs normal renal function ([5]; 56 mg/m^2, cycle 2 day 1): 132.75 (70.60–249.63) %
change in mean AUC0−last and C max between 27 and 56 mg/m^2 ([5]; in vivo): dose-dependent increase
concentration decline in the first 15 min following the end of the infusion ([5]; in vivo): two orders of magnitude
mean terminal t 1/2 ([5]; in vivo): 24 to 72 min
time of peak concentrations after start of infusion ([5]; in vivo, iv): approximately 0.5 h
